Laboratory results as given in PubChem BioAssay AID248 (DTP/NCI, 2004).
Toxic doses and inconclusive results are not listed. No stated cut-off is given here; in the data, active means T/C of 150% or more; inactive means T/C below 125%.

System: L1210 leukemia ip in BDF1 mice, survival T/C
Assay: NCI In Vivo Anticancer Drug Screen. Data for tumor model L1210 Leukemia (intraperitoneal) in B6D2F1 (BDF1) mice
Settings: endpoint: mean survival time, higher = longer survival
Procedure, shortened: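 Value reflects the ratio of survival in compound-treated mice to survival in vehicle-treated controls, with both groups carrying the same transplanted tumor.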

[1] = dose: 12.5 mg/kg/injection, schedule: Q04DX003 (ip), vehicle: saline
[2] = dose: 25.0 mg/kg/injection, schedule: Q01DX009 (ip), vehicle: saline
[3] = dose: 25.0 mg/kg/injection, schedule: Q04DX003 (ip), vehicle: saline
[4] = dose: 50.0 mg/kg/injection, schedule: Q01DX009 (ip), vehicle: saline
[5] = dose: 100.0 mg/kg/injection, schedule: Q01DX009 (ip), vehicle: saline
[6] = dose: 100.0 mg/kg/injection, schedule: Q04DX003 (ip), vehicle: saline
[7] = dose: 200.0 mg/kg/injection, schedule: Q04DX003 (ip), vehicle: saline
[8] = dose: 400.0 mg/kg/injection, schedule: Q04DX003 (ip), vehicle: saline
[9] = dose: 100.0 mg/kg/injection, schedule: Q01DX009 (ip), vehicle: Klucel (hydroxypropylcellulose) (HPC)
[10] = dose: 100.0 mg/kg/injection, schedule: Q04DX003 (ip), vehicle: Klucel (hydroxypropylcellulose) (HPC)
[11] = dose: 200.0 mg/kg/injection, schedule: Q01DX009 (ip), vehicle: Klucel (hydroxypropylcellulose) (HPC)
[12] = dose: 200.0 mg/kg/injection, schedule: Q04DX003 (ip), vehicle: Klucel (hydroxypropylcellulose) (HPC)
[13] = dose: 400.0 mg/kg/injection, schedule: Q01DX009 (ip), vehicle: Klucel (hydroxypropylcellulose) (HPC)
[14] = dose: 400.0 mg/kg/injection, schedule: Q04DX003 (ip), vehicle: Klucel (hydroxypropylcellulose) (HPC)
[15] = dose: 100.0 mg/kg/injection, schedule: Q01DX001 (ip), vehicle: saline
[16] = dose: 200.0 mg/kg/injection, schedule: Q01DX001 (ip), vehicle: saline
[17] = dose: 400.0 mg/kg/injection, schedule: Q01DX001 (ip), vehicle: saline
[18] = dose: 333.0 mg/kg/injection, schedule: Q01DX Z (ip), vehicle: saline
[19] = dose: 500.0 mg/kg/injection, schedule: Q01DX Z (ip), vehicle: saline
[20] = dose: 50.0 mg/kg/injection, schedule: Q01DX001 (ip), vehicle: saline
[21] = dose: 200.0 mg/kg/injection, schedule: Q01DX009 (ip), vehicle: saline

Measured: T/C

CCOC(=O)c1nc2nc(Cl)c(Cl)nc2[nH]1
inactive: [1] 102 % of control | [2] 107 % of control | [3] 100 % of control | [4] 105 % of control | dose: 50.0 mg/kg/injection, schedule: Q04DX003 (ip), vehicle: saline 105 % of control | [5] 96 % of control | [6] 99 % of control | [7] 98 % of control | [8] 96 % of control

CC1SC(c2ccccc2)N(c2ccccc2)C1=O (centres undefined)
inactive: [9] 98 % of control | [10] 100 % of control | [11] 114 % of control | [12] 98 % of control | [13] 106 % of control | [14] 100 % of control

CCCCCCCCCCCCOC(=O)OC1CCC2(C)C(=CCC3C2CCC2(C)C(C(C)CCCC(C)C)CCC32)C1 (centres undefined)
inactive: dose: 100.0 mg/kg/injection, schedule: Q01DX008 (sc), vehicle: olive oil, sesame oil, peanut oil 111 % of control | dose: 100.0 mg/kg/injection, schedule: Q04DX003 (sc), vehicle: olive oil, sesame oil, peanut oil 109 % of control | dose: 200.0 mg/kg/injection, schedule: Q01DX008 (sc), vehicle: olive oil, sesame oil, peanut oil 107 % of control | dose: 200.0 mg/kg/injection, schedule: Q04DX003 (sc), vehicle: olive oil, sesame oil, peanut oil 100 % of control | dose: 400.0 mg/kg/injection, schedule: Q01DX008 (sc), vehicle: olive oil, sesame oil, peanut oil 107 % of control | dose: 400.0 mg/kg/injection, schedule: Q04DX003 (sc), vehicle: olive oil, sesame oil, peanut oil 109 % of control

Cc1ccccc1C(C)(O)Cc1nccn1Cc1ccccc1 (centres undefined)
inactive: [6] 90 % of control | [7] 95 % of control | [8] 103 % of control

O=C(O)CCN(c1ccccc1)S(=O)(=O)c1ccccc1
inactive: [15] 94 % of control | [16] 94 % of control | [17] 94 % of control

CCOC(=O)CC(=O)OCC
inactive: [15] 93 % of control | [16] 93 % of control | [17] 90 % of control

Nc1ccccc1C(=O)NO
inactive: [15] 98 % of control | [16] 97 % of control | [17] 97 % of control

CN(Cc1ccccc1)C(=O)Nc1ccc(F)c([N+](=O)[O-])c1
inactive: [9] 113 % of control | [11] 98 % of control | [13] 101 % of control

CC1(c2ccco2)CCC(=O)CC1=O (centres undefined)
inactive: [10] 101 % of control | [12] 98 % of control | [14] 98 % of control

C=COC(=O)N1c2ccc(C)cc2C=CC1C#N (centres undefined)
inactive: dose: 100.0 mg/kg/injection, schedule: Q04DX003 (ip), vehicle: gum acacia 92 % of control | dose: 200.0 mg/kg/injection, schedule: Q04DX003 (ip), vehicle: gum acacia 102 % of control | dose: 400.0 mg/kg/injection, schedule: Q04DX003 (ip), vehicle: gum acacia 86 % of control

CCOc1ccc(/C=C2\N=C(c3ccccc3)OC2=O)cc1OC
inactive: [9] 109 % of control | [11] 105 % of control | [13] 102 % of control

CCC(=O)OC(OC(=O)CC)c1cccc2ccccc12
inactive: dose: 222.0 mg/kg/injection, schedule: Q01DX Z (ip), vehicle: saline 90 % of control | [18] 86 % of control | [19] 95 % of control

CCOC(=O)c1ccc(NCC(C)(C)N)cc1
inactive: [6] 97 % of control

CC(=O)c1cn(C2CC(O)C(CO)O2)c(=O)[nH]c1=O (centres undefined)
inactive: [20] 117 % of control | dose: 50.0 mg/kg/injection, schedule: Q04DX002 (ip), vehicle: saline 96 % of control | [15] 111 % of control | dose: 100.0 mg/kg/injection, schedule: Q04DX002 (ip), vehicle: saline 105 % of control | [16] 105 % of control | dose: 200.0 mg/kg/injection, schedule: Q04DX002 (ip), vehicle: saline 121 % of control

CCCN(CCC)CCC(=O)O
inactive: [5] 100 % of control | [6] 97 % of control | [21] 96 % of control | [7] 108 % of control | dose: 400.0 mg/kg/injection, schedule: Q01DX009 (ip), vehicle: saline 102 % of control | [8] 101 % of control

O=C(CC(O)(C(F)(F)F)C(F)(F)F)c1cc(CC(=O)C(O)(C(F)(F)F)C(F)(F)F)cc(CC(=O)C(O)(C(F)(F)F)C(F)(F)F)c1
inactive: [10] 100 % of control | [12] 92 % of control | [14] 97 % of control

CC(O)c1nc2ccccc2n1C (centres undefined)
inactive: [18] 118 % of control | [19] 98 % of control

Cc1cc(C)c(S(=O)(=O)O)cc1C
inactive: [4] 92 % of control | [5] 92 % of control | [6] 98 % of control | [21] 88 % of control

O=C(/C=N/O)/C=N/O (tested in a mixture with another compound)
inactive: dose: 6.25 mg/kg/injection, schedule: Q01DX009 (ip), vehicle: saline 97 % of control | dose: 12.5 mg/kg/injection, schedule: Q01DX009 (ip), vehicle: saline 96 % of control | [1] 96 % of control | [2] 96 % of control | [3] 104 % of control

Cc1cc(S(=O)(=O)F)ccc1NC(=O)CCc1ccc(N2C(N)=NC(N)=NC2(C)C)cc1
inactive: dose: 100.0 mg/kg/injection, schedule: Q01DX001 (ip), vehicle: Klucel (hydroxypropylcellulose) (HPC) 98 % of control | dose: 200.0 mg/kg/injection, schedule: Q01DX001 (ip), vehicle: Klucel (hydroxypropylcellulose) (HPC) 102 % of control

CC(=O)Nc1ncnc2c(C3OC(COC(C)=O)C(OC(C)=O)C3OC(C)=O)[nH]nc12 (centres undefined)
inactive: [15] 100 % of control | [16] 97 % of control | [17] 100 % of control

COc1cc(-c2[o+]c3cc(O)cc(O)c3cc2OC2OC(CO)C(O)C(O)C2O)cc(OC)c1O (centres undefined)
inactive: dose: 100.0 mg/kg/injection, schedule: Q01DX001 (ip), vehicle: carboxymethylcellulose (CMC) 92 % of control | dose: 100.0 mg/kg/injection, schedule: Q04DX003 (ip), vehicle: saline sonified 98 % of control | dose: 200.0 mg/kg/injection, schedule: Q01DX001 (ip), vehicle: carboxymethylcellulose (CMC) 101 % of control | dose: 400.0 mg/kg/injection, schedule: Q01DX001 (ip), vehicle: carboxymethylcellulose (CMC) 100 % of control

CC1(C)COP(=O)(O)OC1
inactive: dose: 50.0 mg/kg/injection, schedule: Q01DX009 (ip), vehicle: saline with Tween-80 105 % of control | [15] 101 % of control | dose: 100.0 mg/kg/injection, schedule: Q01DX009 (ip), vehicle: saline with Tween-80 96 % of control | [16] 93 % of control | dose: 200.0 mg/kg/injection, schedule: Q01DX009 (ip), vehicle: saline with Tween-80 91 % of control

COC(=O)C(Br)C(Br)N1C(=O)c2ccccc2C1=O (centres undefined)
inactive: [9] 98 % of control | [10] 102 % of control | [11] 96 % of control | [12] 105 % of control | [13] 102 % of control | [14] 97 % of control

CCN(CC)CCC(=O)c1ccc2oc3ccccc3c2c1
inactive: dose: 12.0 mg/kg/injection, schedule: Q01DX001 (ip), vehicle: saline 100 % of control | dose: 25.0 mg/kg/injection, schedule: Q01DX001 (ip), vehicle: saline 90 % of control | [20] 103 % of control | [15] 113 % of control
